Measured values published in patent publication EP1210346B1, “NEW ACTIVE MARINE ALKALOIDS” (Instituto Biomar S.A., priority 1999, dated 2001).

Legend:
[1] = system: P-388 (suspension culture of a lymphoid neoplasm from DBA/2 mouse); assay: Antitumour screening, growth inhibition of P-388 cells (adapted Bergeron method); assay type: cell-based; settings: P388, 72 h, three days of incubation at 37°C, approximate IC50, duplicate
Procedure: (§1) Cells were maintained in logarithmic phase of growth in Eagle's Minimum Essential Medium, with Earle's Balanced Salts, with 2.0 mM L-glutamine, with non-essential amino acids, without sodium bicarbonate (EMEM/neaa); supplemented with 10% Fetal Calf Serum (FCS), 10^-2 M sodium bicarbonate and 0.1 g/l penicillin-G + streptomycin sulfate.
(§2) A screening procedure has been carried out to determine and compare the antitumour activity of these compounds, using an adapted form of the method described by Bergeron et al (Raymond J Bergeron, Paul F Cavanaugh, Jr, Steven J Kline, Robert G Hughes, Jr, Gary T Elliot and Carl W Porter. Antineoplastic and antiherpetic activity of spermidine catecholamide iron chelators. Biochem. Bioph. Res. Comm. 1984, 121, 848-854). The antitumour cells employed were P-388 (suspension culture of a lymphoid neoplasm from DBA/2 mouse), A-549 (monolayer culture of a human lung carcinoma), HT-29 (monolayer culture of a human colon carcinoma) and MEL-28 (monolayer culture of a human melanoma).
P-388 cells were seeded into 16 mm wells at 1 x 10^4 cells per well in 1 ml aliquots of MEM SFCS containing the indicated concentration of drug. A separate set of cultures without drug was seeded as control growth to ensure that cells remained in exponential phase of growth. All determinations were carried out in duplicate. […]

[2] = system: MEL-28 (monolayer culture of a human melanoma); assay: Antitumour screening, growth inhibition of MEL-28 cells (adapted Bergeron method, Crystal Violet staining); assay type: cell-based; settings: SK-MEL-28, 72 h, three days of incubation at 37°C, approximate IC50, duplicate
Procedure: as §1, §2
(§3) A-549, HT-29 and MEL-28 cells were seeded into 16 mm wells at 2 x 10^4 cells per well in 1 ml aliquots of MEM 10FCS containing the indicated concentration of drug. […] An approximately IC50 was determined by comparing the growth in wells with drug to the growth in wells control.

[3] = Stability in acid and basic media
[4] = system: HT-29 (monolayer culture of a human colon carcinoma); assay: Antitumour screening, growth inhibition of HT-29 cells (adapted Bergeron method, Crystal Violet staining); assay type: cell-based; settings: 72 h, three days of incubation at 37°C, approximate IC50, duplicate
Procedure: as §1, §2, §3

[5] = system: A-549 (monolayer culture of a human lung carcinoma); assay: Antitumour screening, growth inhibition of A-549 cells (adapted Bergeron method, Crystal Violet staining); assay type: cell-based; settings: A549, 72 h, three days of incubation at 37°C, approximate IC50, duplicate
Procedure: as §1, §2, §3

[6] = system: Gram-positive bacteria (Staphylococcus and others); assay: Activity against Gram-positive bacteria; assay type: cell-based

COC1=C(C)C(=O)C2=C(C1=O)C1C3CC4=C(C(=O)C(OC)=C(C)C4=O)C(COC(C)=O)N3C(O)C(C2)N1C (stereo not drawn) [Jorumycin]
IC50 [1]: 20 nM | IC50 [2]: 20 nM | stability [3]: highly unstable | IC50 [4]: 20 nM | IC50 [5]: 20 nM | activity against Gram-positive bacteria [6]: showed also activity
